Experimental data from ChEMBL document CHEMBL5291721, “A preclinical secondary pharmacology resource illuminates target-adverse drug reaction associations of marketed drugs” (Nat Commun, 2023).

Key:
Glucocorticoid receptor = biological target: T1, Glucocorticoid receptor (Homo sapiens, UniProt P04150); assay type: functional; also: assay procedure not described here
T1 sequence (P04150 whole entry): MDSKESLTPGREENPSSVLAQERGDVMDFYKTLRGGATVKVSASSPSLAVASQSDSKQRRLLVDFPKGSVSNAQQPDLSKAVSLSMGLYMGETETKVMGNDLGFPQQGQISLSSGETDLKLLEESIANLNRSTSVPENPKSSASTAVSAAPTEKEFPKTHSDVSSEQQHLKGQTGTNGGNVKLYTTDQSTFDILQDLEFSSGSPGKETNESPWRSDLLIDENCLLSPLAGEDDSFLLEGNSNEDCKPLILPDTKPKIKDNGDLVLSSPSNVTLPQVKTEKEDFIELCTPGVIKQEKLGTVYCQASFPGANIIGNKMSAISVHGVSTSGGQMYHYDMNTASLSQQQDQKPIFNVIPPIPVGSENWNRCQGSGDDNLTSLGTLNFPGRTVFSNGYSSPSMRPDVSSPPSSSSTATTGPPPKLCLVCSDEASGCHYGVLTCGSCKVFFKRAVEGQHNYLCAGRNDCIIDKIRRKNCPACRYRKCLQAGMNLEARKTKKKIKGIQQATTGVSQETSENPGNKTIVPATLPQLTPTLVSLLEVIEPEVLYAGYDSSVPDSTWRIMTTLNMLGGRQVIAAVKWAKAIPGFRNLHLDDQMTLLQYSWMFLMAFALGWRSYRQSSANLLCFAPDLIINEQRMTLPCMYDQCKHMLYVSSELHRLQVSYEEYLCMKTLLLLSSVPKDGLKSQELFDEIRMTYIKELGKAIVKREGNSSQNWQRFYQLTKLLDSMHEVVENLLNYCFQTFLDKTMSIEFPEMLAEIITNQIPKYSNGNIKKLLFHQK

[1] = biological target: T2, Alpha-2C adrenergic receptor (Homo sapiens, UniProt P18825); assay type: functional
T2 sequence (P18825 whole entry): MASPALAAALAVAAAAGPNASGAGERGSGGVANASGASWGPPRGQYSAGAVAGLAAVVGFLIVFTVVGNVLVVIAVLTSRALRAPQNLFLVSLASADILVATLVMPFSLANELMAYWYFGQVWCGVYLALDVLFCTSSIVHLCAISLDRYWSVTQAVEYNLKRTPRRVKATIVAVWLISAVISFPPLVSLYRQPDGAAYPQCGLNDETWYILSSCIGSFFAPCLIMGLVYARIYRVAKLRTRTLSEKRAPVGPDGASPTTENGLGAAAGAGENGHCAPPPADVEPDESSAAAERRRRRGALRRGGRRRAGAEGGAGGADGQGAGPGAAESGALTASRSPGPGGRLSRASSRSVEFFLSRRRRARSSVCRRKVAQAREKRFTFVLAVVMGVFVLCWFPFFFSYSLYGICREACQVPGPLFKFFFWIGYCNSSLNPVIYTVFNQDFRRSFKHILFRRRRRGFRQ

Androgen receptor = biological target: T3, Androgen receptor (Homo sapiens, UniProt P10275); also: assay procedure not described here
T3 sequence (P10275 whole entry): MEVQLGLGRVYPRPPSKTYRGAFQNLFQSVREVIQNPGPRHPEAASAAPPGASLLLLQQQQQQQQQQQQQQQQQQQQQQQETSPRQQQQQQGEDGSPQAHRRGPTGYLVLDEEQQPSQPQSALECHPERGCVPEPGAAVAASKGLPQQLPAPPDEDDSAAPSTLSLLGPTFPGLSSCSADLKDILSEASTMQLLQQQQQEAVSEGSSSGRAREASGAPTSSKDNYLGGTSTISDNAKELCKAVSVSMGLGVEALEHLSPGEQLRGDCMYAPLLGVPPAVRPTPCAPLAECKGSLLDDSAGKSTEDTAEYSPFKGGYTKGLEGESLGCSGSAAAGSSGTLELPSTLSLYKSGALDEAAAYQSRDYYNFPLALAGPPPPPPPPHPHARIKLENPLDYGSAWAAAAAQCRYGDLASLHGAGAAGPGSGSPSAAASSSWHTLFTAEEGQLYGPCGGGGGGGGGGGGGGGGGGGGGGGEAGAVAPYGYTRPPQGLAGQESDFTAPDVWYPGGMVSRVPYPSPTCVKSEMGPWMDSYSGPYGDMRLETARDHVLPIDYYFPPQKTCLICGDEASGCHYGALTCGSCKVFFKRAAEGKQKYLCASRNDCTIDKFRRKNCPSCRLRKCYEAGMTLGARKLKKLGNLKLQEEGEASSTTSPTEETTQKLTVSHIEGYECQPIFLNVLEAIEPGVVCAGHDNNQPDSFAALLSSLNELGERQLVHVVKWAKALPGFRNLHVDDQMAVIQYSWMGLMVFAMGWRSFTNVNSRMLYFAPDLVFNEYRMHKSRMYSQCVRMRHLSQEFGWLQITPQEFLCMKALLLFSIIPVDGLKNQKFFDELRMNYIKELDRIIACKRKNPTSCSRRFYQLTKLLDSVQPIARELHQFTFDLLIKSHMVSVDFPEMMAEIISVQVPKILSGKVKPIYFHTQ

[2] = biological target: T4, Muscarinic acetylcholine receptor M1 (Homo sapiens, UniProt P11229); also: assay procedure not described here
T4 sequence (P11229 whole entry): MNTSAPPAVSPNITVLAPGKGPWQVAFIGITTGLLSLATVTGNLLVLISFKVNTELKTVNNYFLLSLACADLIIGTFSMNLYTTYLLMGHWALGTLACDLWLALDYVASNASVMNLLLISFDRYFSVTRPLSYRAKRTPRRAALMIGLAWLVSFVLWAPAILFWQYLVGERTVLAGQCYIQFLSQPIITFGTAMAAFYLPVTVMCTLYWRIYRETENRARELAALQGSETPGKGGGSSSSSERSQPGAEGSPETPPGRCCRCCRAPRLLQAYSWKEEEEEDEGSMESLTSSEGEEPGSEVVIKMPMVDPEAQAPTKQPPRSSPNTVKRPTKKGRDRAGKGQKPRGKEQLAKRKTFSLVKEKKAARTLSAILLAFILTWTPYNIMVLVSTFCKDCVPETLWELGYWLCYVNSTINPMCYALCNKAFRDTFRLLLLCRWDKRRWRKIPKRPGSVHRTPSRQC

Q: COc1cccc2c1C(=O)c1c(O)c3c(c(O)c1C2=O)C[C@@](O)(C(C)=O)C[C@@H]3O[C@H]1C[C@H](N)[C@H](O)[C@H](C)O1 [DAUNORUBICIN] was tested. Which AC50 (Glucocorticoid receptor) did it give?
A: > 10 µM

Q: With CC(C)CC(N(C)C)C1(c2ccc(Cl)cc2)CCC1 (centres undefined) [SIBUTRAMINE] as the compound, how does the AC50 [1] read?
A: 0.758 µM

Q: Which AC50 (Androgen receptor) does the source give for COLISTIN here?
A: > 30 µM

Q: What about the AC50 [2] of the same compound?
A: > 30 µM
